This passage reports NPY release, EC50 and Emax results from patent US8299023B2, “Neuropeptide-2 receptor (Y-2R) agonists” (Hoffmann-La Roche Inc., priority 2008, dated 2012).

Assay [1] relates to hypothalamic slices. As to conditions: hypothalamic slices in vitro; cited from earlier work.
The target of assay [2] is T1, Y1R (Homo sapiens, UniProt P25929).
T1 sequence (P25929 1-384): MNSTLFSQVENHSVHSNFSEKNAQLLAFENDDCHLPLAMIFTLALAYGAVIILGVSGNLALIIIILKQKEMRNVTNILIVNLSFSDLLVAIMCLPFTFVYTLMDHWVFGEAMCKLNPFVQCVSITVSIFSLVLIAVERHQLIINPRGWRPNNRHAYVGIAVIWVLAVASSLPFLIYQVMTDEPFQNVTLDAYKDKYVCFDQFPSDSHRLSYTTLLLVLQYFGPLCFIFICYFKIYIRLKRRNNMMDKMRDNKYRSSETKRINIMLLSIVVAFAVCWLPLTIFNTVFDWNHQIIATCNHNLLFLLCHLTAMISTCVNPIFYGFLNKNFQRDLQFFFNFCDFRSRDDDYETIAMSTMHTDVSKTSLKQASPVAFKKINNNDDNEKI
In words: Ca flux assay (FLIPR), Y1R. In kind it is cell-based.

Assay [3] concerns the target Y4R (Homo sapiens, UniProt P50391). In words: Ca flux assay (FLIPR), Y4R. The format is cell-based.
Assay [4] addresses T2, Y5R (Homo sapiens, UniProt Q15761).
T2 sequence (Q15761 1-445): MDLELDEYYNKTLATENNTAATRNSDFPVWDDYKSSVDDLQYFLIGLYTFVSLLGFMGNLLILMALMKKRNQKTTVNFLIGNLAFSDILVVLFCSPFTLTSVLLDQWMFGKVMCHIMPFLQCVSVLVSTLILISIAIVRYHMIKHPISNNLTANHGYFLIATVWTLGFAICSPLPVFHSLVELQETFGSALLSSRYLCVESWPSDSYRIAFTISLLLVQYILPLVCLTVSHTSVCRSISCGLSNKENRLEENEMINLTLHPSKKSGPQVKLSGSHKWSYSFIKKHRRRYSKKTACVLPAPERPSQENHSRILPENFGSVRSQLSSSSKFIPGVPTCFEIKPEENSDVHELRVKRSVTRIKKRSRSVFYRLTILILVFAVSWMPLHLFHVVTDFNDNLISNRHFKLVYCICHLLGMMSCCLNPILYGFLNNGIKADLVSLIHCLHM
In words: Ca flux assay (FLIPR), Y5R. As to conditions: for Emax: read-out: Y5R FLIPR, percentage in brackets beside the EC50. The format is cell-based.

Assay [5] concerns the target T3, human NPY2-receptors (Homo sapiens, UniProt P49146).
T3 construct: expressed in transfected cells; host or cells: HEK293 (G418 selection in the medium)
T3 sequence (P49146 1-381): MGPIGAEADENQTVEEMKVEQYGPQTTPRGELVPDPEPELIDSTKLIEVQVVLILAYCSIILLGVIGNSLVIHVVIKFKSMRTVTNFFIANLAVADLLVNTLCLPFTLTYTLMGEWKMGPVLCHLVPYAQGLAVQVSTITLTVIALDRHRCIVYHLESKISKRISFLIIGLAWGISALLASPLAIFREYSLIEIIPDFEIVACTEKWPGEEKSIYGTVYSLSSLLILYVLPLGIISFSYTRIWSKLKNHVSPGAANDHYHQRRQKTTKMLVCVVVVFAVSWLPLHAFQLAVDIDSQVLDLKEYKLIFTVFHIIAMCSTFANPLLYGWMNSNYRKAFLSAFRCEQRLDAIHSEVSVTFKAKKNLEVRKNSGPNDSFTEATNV
Put plainly: cAMP agonist assay, Y2R. The format is cell-based.
Experimental: HEK293 cells expressing human NPY2-receptors were plated in a 384-well plate at a density of 9000 cells/well using a Multi-drop dispenser and the plates were grown overnight at 37° C.
The media and reagents were warmed to room temperature. Before the dilutions were prepared, the stock solution of NPY2-receptor ligands and controls in dimethyl sulphoxide (DMSO, Sigma Cat. #D2650) was allowed to warm up to 32° C. for 5-10 min.
The plating media was removed by gentle inversion of the 384-well plate on a paper towel and was replaced with incubation medium (50 μ/L well) containing various concentrations of NPY2-receptor ligands (four replicates/concentration). The plates were incubated at room temperature for 30 min. Following the 30 min treatment period, the incubation media was discarded and replaced with 50 μL/well of Assay Lysis Buffer (provided in the Tropix kit). The cells were lysed by incubating plates for 45 min @ 37° C. The lysate (20 μl) was transferred into the pre-coated antibody plates (384-well) supplied in the Tropix kit. AP conjugate (10 μL) and of anti-cAMP antibody (20 μL) was added to each well and the plates incubated on a shaker at room temperature for 1 h. The plates were washed 5 times with Wash Buffer (70 μL/well/wash) and the plates tapped dry. […] The signal in each well was measured (1 sec/well) using a Luminometer (VICTOR-V).

Chain of Y4R (P50391 whole entry): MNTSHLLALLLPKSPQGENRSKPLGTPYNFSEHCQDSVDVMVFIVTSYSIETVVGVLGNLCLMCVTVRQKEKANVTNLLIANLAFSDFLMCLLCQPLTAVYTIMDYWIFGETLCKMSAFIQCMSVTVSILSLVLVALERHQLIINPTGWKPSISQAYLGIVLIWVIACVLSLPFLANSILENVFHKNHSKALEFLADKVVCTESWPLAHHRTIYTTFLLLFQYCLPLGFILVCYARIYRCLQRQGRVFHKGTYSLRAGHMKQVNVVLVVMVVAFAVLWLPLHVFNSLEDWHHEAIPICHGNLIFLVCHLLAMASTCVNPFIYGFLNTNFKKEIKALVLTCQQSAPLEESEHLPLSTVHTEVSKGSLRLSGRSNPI

On to `N=C(N)NCCC[C@H](NC(=O)CC1(CC(=O)N2CCN(C3c4ccccc4NC(=O)c4ccccc43)CC2)CCCC1)C(=O)NCCn1c(=O)n(-c2ccccc2)n(-c2ccccc2)c1=O` (stereo partly shown) [BIIE0246], for which the NPY release result in assay [1] is “increases NPY release”.
As for `CC[C@H](C)[C@H](NC(C)=O)C(=O)N[C@@H](CCCCN)C(=O)NCc1ccc(-c2cccc(CC(=O)N[C@@H](CCCNC(=N)N)C(=O)N[C@@H](Cc3c[nH]cn3)C(=O)N[C@@H](Cc3ccc(O)cc3)C(=O)N[C@@H](CC(C)C)C(=O)N[C@@H](CC(N)=O)C(=O)N[C@@H](Cc3c[nH]c4ccccc34)C(=O)N[C@H](C(=O)N[C@H](C(=O)N[C@@H](CCCNC(=N)N)C(=O)N[C@@H](CCC(N)=O)C(=O)N(C)[C@@H](CCCNC(=N)N)C(=O)N[C@@H](Cc3ccc(O)cc3)C(N)=O)[C@@H](C)O)C(C)C)c2)cc1` [Example 5], the EC50 in assay [2], in assay [3] and in assay [4] was more than 30 µM throughout.
Consider `CC[C@H](C)[C@H](NC(C)=O)C(=O)N[C@@H](CCCCN)C(=O)N1CCN(c2ccc3c(ccn3CC(=O)N[C@@H](CCCNC(=N)N)C(=O)N[C@@H](Cc3c[nH]cn3)C(=O)N[C@@H](Cc3ccc(O)cc3)C(=O)N[C@@H](CC(C)C)C(=O)N[C@@H](CC(N)=O)C(=O)N[C@@H](Cc3c[nH]c4ccccc34)C(=O)N[C@H](C(=O)N[C@H](C(=O)N[C@@H](CCCNC(=N)N)C(=O)N[C@@H](CCC(N)=O)C(=O)N(C)[C@@H](CCCNC(=N)N)C(=O)N[C@@H](Cc3ccc(O)cc3)C(N)=O)[C@@H](C)O)C(C)C)c2)CC1` [Example 6], for which the EC50 – broadly, the midpoint of the concentration-response curve – in assay [2] is more than 30 µM; in assay [3] it was more than 30 µM; in assay [4], 10.7 µM.
On to `CC[C@H](C)[C@H](NC(C)=O)C(=O)N[C@@H](CCCCN)C(=O)N1CCCN(c2ccc3ncn(CC(=O)N[C@@H](CCCNC(=N)N)C(=O)N[C@@H](Cc4c[nH]cn4)C(=O)N[C@@H](Cc4ccc(O)cc4)C(=O)N[C@@H](CC(C)C)C(=O)N[C@@H](CC(N)=O)C(=O)N[C@@H](Cc4c[nH]c5ccccc45)C(=O)N[C@H](C(=O)N[C@H](C(=O)N[C@@H](CCCNC(=N)N)C(=O)N[C@@H](CCC(N)=O)C(=O)N(C)[C@@H](CCCNC(=N)N)C(=O)N[C@@H](Cc4ccc(O)cc4)C(N)=O)[C@@H](C)O)C(C)C)c(=O)c3c2)CC1` [Example 8], for which the EC50 in assay [2] is more than 9 µM; in assay [3], more than 9 µM; in assay [4], 6.03 µM.
In the case of `CC[C@H](C)[C@H](NC(C)=O)C(=O)N[C@@H](CCCCN)C(=O)N1CCN(c2nc3ncn(CC(=O)N[C@@H](CCCNC(=N)N)C(=O)N[C@@H](Cc4c[nH]cn4)C(=O)N[C@@H](Cc4ccc(O)cc4)C(=O)N[C@@H](CC(C)C)C(=O)N[C@@H](CC(N)=O)C(=O)N[C@@H](Cc4c[nH]c5ccccc45)C(=O)N[C@H](C(=O)N[C@H](C(=O)N[C@@H](CCCNC(=N)N)C(=O)N[C@@H](CCC(N)=O)C(=O)N(C)[C@@H](CCCNC(=N)N)C(=O)N[C@@H](Cc4ccc(O)cc4)C(N)=O)[C@@H](C)O)C(C)C)c3c(=O)[nH]2)CC1` [Example 9], the EC50 in assay [2], in assay [3] and in assay [4] was more than 9 µM in each case.
In the case of `CC[C@H](C)[C@H](NC(C)=O)C(=O)N[C@@H](CCCCN)C(=O)N1CCN(c2ncc3c(ncn3CC(=O)N[C@@H](CCCNC(=N)N)C(=O)N[C@@H](Cc3c[nH]cn3)C(=O)N[C@@H](Cc3ccc(O)cc3)C(=O)N[C@@H](CC(C)C)C(=O)N[C@@H](CC(N)=O)C(=O)N[C@@H](Cc3c[nH]c4ccccc34)C(=O)N[C@H](C(=O)N[C@H](C(=O)N[C@@H](CCCNC(=N)N)C(=O)N[C@@H](CCC(N)=O)C(=O)N(C)[C@@H](CCCNC(=N)N)C(=O)N[C@@H](Cc3ccc(O)cc3)C(N)=O)[C@@H](C)O)C(C)C)n2)CC1` [Example 10], the EC50 in assay [2] was more than 5 µM; in assay [3] it was more than 5 µM; in assay [4], 1.1 µM. For the same compound, the Emax in assay [4] was determined as 48%.
For `CC[C@H](C)[C@H](NC(C)=O)C(=O)N[C@@H](CCCCN)C(=O)N1CCN(c2nc(N)c3c(ncn3CC(=O)N[C@@H](CCCNC(=N)N)C(=O)N[C@@H](Cc3c[nH]cn3)C(=O)N[C@@H](Cc3ccc(O)cc3)C(=O)N[C@@H](CC(C)C)C(=O)N[C@@H](CC(N)=O)C(=O)N[C@@H](Cc3c[nH]c4ccccc34)C(=O)N[C@H](C(=O)N[C@H](C(=O)N[C@@H](CCCNC(=N)N)C(=O)N[C@@H](CCC(N)=O)C(=O)N(C)[C@@H](CCCNC(=N)N)C(=O)N[C@@H](Cc3ccc(O)cc3)C(N)=O)[C@@H](C)O)C(C)C)n2)CC1` [Example 11], the EC50 in assay [5] is 0.00018 µM; in assay [2], more than 5 µM; in assay [3] it was more than 5 µM; in assay [4], 3.3 µM. Besides, the Emax in assay [4] turned out to be 39%.
For the compound `CC[C@H](C)[C@H](NC(C)=O)C(=O)N[C@@H](CCCCN)C(=O)N1CC2CC1CC2c1ccc2ncn(CC(=O)N[C@@H](CCCNC(=N)N)C(=O)N[C@@H](Cc3c[nH]cn3)C(=O)N[C@@H](Cc3ccc(O)cc3)C(=O)N[C@@H](CC(C)C)C(=O)N[C@@H](CC(N)=O)C(=O)N[C@@H](Cc3c[nH]c4ccccc34)C(=O)N[C@H](C(=O)N[C@H](C(=O)N[C@@H](CCCNC(=N)N)C(=O)N[C@@H](CCC(N)=O)C(=O)N(C)[C@@H](CCCNC(=N)N)C(=O)N[C@@H](Cc3ccc(O)cc3)C(N)=O)[C@@H](C)O)C(C)C)c(=O)c2c1` (stereo partly shown) [Example 12], the EC50 in assay [2] was more than 5 µM; in assay [3], more than 5 µM; in assay [4], 2.87 µM. For the same compound, the Emax in assay [4] was determined as 43%.
With `CC[C@H](C)[C@H](NC(C)=O)C(=O)N[C@@H](CCCCN)C(=O)N1CCN(c2ccc3ccn(CC(=O)N[C@@H](CCCNC(=N)N)C(=O)N[C@@H](Cc4c[nH]cn4)C(=O)N[C@@H](Cc4ccc(O)cc4)C(=O)N[C@@H](CC(C)C)C(=O)N[C@@H](CC(N)=O)C(=O)N[C@@H](Cc4c[nH]c5ccccc45)C(=O)N[C@H](C(=O)N[C@H](C(=O)N[C@@H](CCCNC(=N)N)C(=O)N[C@@H](CCC(N)=O)C(=O)N(C)[C@@H](CCCNC(=N)N)C(=O)N[C@@H](Cc4ccc(O)cc4)C(N)=O)[C@@H](C)O)C(C)C)c(=O)c3c2)CC1` [Example 13], the EC50 in assay [5] was 0.00018 µM; in assay [2], more than 5 µM; in assay [3], more than 5 µM; in assay [4], 2.34 µM. The Emax in assay [4] was determined as 49%.
